Measurements from ChEMBL document CHEMBL3593229, “Identification of a potent 5-phenyl-thiazol-2-ylamine-based inhibitor of FLT3 with activity against drug resistance-conferring point mutations” (Eur J Med Chem, 2015).

Assays:
[1] = AUC (0 to infinity) in Sprague-Dawley rat at 10 mg/kg, po; format: ADME, organism-based; parameters: dose 10 mg/kg, time infinity, route oral; conditions: in vivo
[2] = biological target: Ribosomal protein S6 kinase alpha-5 (Homo sapiens) (UniProt O75582); assay: Inhibition of human MSK1 at 0.1 uM relative to control
Chain of Ribosomal protein S6 kinase alpha-5 (Homo sapiens) (O75582 whole entry, looked up): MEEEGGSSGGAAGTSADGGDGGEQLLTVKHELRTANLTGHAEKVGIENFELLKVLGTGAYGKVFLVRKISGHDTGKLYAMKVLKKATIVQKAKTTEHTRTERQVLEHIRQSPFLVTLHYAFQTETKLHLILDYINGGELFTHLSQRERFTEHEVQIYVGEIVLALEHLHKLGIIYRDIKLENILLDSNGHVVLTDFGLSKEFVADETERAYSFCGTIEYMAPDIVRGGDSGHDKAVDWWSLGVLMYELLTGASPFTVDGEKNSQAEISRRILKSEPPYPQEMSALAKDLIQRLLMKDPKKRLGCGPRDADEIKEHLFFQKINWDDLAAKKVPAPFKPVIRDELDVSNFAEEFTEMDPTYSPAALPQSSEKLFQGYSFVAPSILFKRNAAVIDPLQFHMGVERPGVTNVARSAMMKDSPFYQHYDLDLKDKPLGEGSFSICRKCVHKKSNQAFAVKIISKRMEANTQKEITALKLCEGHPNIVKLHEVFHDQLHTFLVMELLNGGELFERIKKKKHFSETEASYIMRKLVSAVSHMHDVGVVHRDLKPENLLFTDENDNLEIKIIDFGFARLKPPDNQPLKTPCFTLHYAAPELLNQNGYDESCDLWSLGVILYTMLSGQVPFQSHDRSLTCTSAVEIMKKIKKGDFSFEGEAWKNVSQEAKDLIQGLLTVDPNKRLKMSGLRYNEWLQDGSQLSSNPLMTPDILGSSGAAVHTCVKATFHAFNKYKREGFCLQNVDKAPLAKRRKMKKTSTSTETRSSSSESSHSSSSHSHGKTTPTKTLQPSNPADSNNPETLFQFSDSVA

[3] = biological target: Tyrosine-protein kinase HCK (Homo sapiens) (UniProt P08631); assay: Inhibition of human HCK at 0.1 uM relative to control
Chain of Tyrosine-protein kinase HCK (Homo sapiens) (P08631 2-526 limits assumed): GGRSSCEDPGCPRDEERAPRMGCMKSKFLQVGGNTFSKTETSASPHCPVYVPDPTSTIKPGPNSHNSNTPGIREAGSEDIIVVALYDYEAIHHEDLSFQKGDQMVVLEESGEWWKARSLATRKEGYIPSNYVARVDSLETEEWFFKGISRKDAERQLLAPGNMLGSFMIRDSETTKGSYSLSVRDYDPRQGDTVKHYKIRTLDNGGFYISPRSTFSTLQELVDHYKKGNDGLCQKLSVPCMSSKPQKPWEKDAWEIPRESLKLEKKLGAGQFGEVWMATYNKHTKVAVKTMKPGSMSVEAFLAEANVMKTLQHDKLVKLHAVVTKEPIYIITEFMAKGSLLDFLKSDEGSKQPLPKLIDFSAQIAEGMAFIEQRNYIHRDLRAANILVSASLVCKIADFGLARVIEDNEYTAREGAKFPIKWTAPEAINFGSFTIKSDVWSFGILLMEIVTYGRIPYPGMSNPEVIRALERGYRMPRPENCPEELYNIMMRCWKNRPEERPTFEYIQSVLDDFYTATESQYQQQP

[4] = biological target: Tyrosine-protein kinase Lyn (Homo sapiens) (UniProt P07948); assay: Inhibition of human LYNB at 0.1 uM relative to control
Chain of Tyrosine-protein kinase Lyn (Homo sapiens) (P07948 2-512 limits assumed): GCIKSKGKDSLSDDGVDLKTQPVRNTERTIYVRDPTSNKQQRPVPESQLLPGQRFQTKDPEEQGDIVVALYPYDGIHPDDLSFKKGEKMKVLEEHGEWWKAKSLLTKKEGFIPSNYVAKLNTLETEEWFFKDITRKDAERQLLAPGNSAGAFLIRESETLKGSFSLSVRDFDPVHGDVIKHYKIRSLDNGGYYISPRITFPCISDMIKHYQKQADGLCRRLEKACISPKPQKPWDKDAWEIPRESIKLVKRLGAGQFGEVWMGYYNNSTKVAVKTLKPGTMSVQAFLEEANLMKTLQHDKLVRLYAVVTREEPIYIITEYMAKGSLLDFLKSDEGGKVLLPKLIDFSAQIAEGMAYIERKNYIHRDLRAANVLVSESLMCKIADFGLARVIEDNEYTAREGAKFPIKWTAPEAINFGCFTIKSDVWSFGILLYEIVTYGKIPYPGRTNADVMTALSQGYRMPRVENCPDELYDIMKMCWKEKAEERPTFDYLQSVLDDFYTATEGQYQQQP

[5] = biological target: Serine/threonine-protein kinase B-raf (Homo sapiens) (UniProt P15056); assay: Inhibition of human BRAF at 0.1 uM relative to control
Chain of Serine/threonine-protein kinase B-raf (Homo sapiens) (P15056 whole entry): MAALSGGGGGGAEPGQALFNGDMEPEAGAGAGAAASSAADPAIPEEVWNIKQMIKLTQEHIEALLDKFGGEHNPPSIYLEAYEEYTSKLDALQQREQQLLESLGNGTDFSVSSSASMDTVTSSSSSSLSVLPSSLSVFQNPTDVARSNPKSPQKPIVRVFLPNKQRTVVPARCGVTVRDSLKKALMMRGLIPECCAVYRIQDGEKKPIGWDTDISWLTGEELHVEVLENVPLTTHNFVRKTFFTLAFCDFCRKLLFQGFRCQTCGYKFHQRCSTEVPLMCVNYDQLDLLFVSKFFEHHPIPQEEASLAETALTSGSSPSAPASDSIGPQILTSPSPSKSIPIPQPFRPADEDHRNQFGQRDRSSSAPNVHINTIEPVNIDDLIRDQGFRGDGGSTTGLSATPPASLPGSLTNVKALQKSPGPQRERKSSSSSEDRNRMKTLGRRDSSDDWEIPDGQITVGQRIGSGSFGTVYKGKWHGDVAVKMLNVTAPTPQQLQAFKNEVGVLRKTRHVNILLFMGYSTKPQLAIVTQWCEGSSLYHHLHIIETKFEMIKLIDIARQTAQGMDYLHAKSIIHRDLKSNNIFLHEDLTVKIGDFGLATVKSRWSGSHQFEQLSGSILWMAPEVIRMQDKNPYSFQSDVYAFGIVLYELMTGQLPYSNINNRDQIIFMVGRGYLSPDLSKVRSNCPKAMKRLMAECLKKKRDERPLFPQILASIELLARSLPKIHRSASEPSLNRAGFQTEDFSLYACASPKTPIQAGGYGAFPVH

CCc1cc(NC(=O)Nc2ccc(-c3cnc(Nc4cc(N5CCN(CC)CC5)nc(C)n4)s3)cc2)no1
AUC(0-inf) [1]: 1080 ng·h/mL
inhibition [2]: 0%
inhibition [3]: 45%
inhibition [4]: 88%
inhibition [5]: 36%
